{"source": "patent US9131694B2", "about": "“Insecticidal pyridine compounds” (Dow AgroSciences, LLC, priority 2009, dated 2015)", "key": {"[1]": {"tested_on": "Green Peach Aphid (Myzus persicae)", "assay": "Insecticidal test for green peach aphid in foliar spray assay on cabbage seedlings", "format": "in vivo", "details": "200 ppm foliar spray on infested cabbage seedlings, graded after three days", "protocol": "Insecticidal Test for Green Peach Aphid (Myzus persicae) in Foliar Spray Assay Cabbage seedlings grown in 3-inch pots, with 2-3 small (3-5 cm) true leaves, were used as test substrate. The seedlings were infested with 20-50 green peach aphids (wingless adult and nymph) 1-2 days prior to chemical application. Four seedlings were used for each treatment. Selected compounds (2 mg), many of which are described above, were dissolved in 2 ml of acetone:methanol (1:1) solvent, forming stock solutions of 1000 ppm. The stock solutions were diluted 5× with 0.025% Tween 20 in H2O to obtain a solution at 200 ppm. A hand-held Devilbiss aspirator sprayer was used for spraying a solution to both sides of cabbage leaves until runoff. Reference plants (solvent check) were sprayed with the diluent only. Treated plants were held in a holding room for three days at approximately 23° C. and 40% relative humidity prior to grading. Evaluation was conducted by counting the number of live aphids per plant under a microscope. Insecticidal activity was measured by using Abbott's correction formula: Corrected % Control=100*(X−Y)/X • where • X=No. of live aphids on solvent check plants • Y=No. of live aphids on treated plants The results of this test are set forth in the column labelled “Green Peach Aphid” in Table 1 below, in which letter designations represent ranges of percent control as follows: • A=80-100% control • B=60-79% control • C=40-59% control • D=20-39% control • E=0-19% control"}, "[2]": {"tested_on": "Beet Armyworm (Spodoptera exigua)", "assay": "Insecticidal test for beet armyworm, treated lepidopteran diet", "format": "in vivo", "details": "2000 ppm test solution, 50 μL per well on diet (50 g/cm^2 dose), second-instar larvae, observed 2 and 5 days after treatment", "protocol": "Insecticidal Test for Beet Armyworm (Spodoptera exigua). To prepare test solution, the test compound was formulated at 2000 ppm solution in 2 mL of 9 acetone: 1 tap water. 50 μL of the test solution ([…] dose for each well) was pipetted upon the surface of 1 mL of lepidopteran diet (Southland Multi-Species Lepidopteran Diet) contained in each of eight wells per insect species (one well=1 replication). A second-instar beet armyworm was placed upon the treated diet in each well (one insect per well) once the solvent had air-dried. Trays containing the treated diet and larvae were covered and then held in a growth chamber at 25° C., 50-55% RH, and 16 hr light:8 hr dark for 5 days. Observation were conducted 2 and 5 days after treatment and infestation to score the number of dead insects per 8-well treatment. The results of this test are set forth in the column labelled “Beet Armyworm” in Table 1 below, in which letter designations represent ranges of percent control as set forth above."}}}
{"smiles": "FC(F)(F)c1cc(Cl)nc(N2CCCC2c2ccccn2)c1Cl", "note": "(stereo not drawn) [Compound 2, 6-[2-(2-pyridyl)-1-pyrrolidinyl]-4-trifluoromethyl-2,5-dichloropyridine]", "values": [{"measurement": "Green Peach Aphid percent control (Abbott corrected % control)", "setting": "[1]", "result": "C (C=40-59% control)"}, {"measurement": "Beet Armyworm percent control", "setting": "[2]", "result": "B (B=60-79% control)"}]}
{"smiles": "FC(F)(F)c1cc(-n2c(-c3ccccn3)nc3ccccc32)nc(Cl)c1Cl", "values": [{"measurement": "Green Peach Aphid percent control (Abbott corrected % control)", "setting": "[1]", "result": "D (D=20-39% control)"}, {"measurement": "Beet Armyworm percent control", "setting": "[2]", "result": "D (D=20-39% control)"}]}
{"smiles": "C[Si](C)(C)c1c(C(F)(F)F)cc(N2CCCC2c2ccccn2)nc1Cl", "note": "(stereo not drawn) [Compound 10]", "values": [{"measurement": "Green Peach Aphid percent control (Abbott corrected % control)", "setting": "[1]", "result": "E (E=0-19% control)"}, {"measurement": "Beet Armyworm percent control", "setting": "[2]", "result": "E (E=0-19% control)"}]}
{"smiles": "FC(F)(F)c1cc(N2CCCCC2c2ccccn2)nc(Cl)c1Cl", "note": "(stereo not drawn) [Compound 6]", "values": [{"measurement": "Green Peach Aphid percent control (Abbott corrected % control)", "setting": "[1]", "result": "D (D=20-39% control)"}, {"measurement": "Beet Armyworm percent control", "setting": "[2]", "result": "A (A=80-100% control)"}]}
{"smiles": "FC(F)(F)c1cc(N2CCCC2c2ccccn2)ncc1Cl", "note": "(stereo not drawn)", "values": [{"measurement": "Green Peach Aphid percent control (Abbott corrected % control)", "setting": "[1]", "result": "E (E=0-19% control)"}, {"measurement": "Beet Armyworm percent control", "setting": "[2]", "result": "D (D=20-39% control)"}]}
{"smiles": "CC1COC(c2ccccn2)N1c1cc(C(F)(F)F)c(C#N)c(Cl)n1", "note": "(stereo not drawn) [Compound 16, 2-chloro-6-[4-methyl-2-(2-pyridyl)oxazolidin-3-yl]-4-(trifluoromethyl)pyridine-3-carbonitrile]", "values": [{"measurement": "Green Peach Aphid percent control (Abbott corrected % control)", "setting": "[1]", "result": "E (E=0-19% control)"}, {"measurement": "Beet Armyworm percent control", "setting": "[2]", "result": "E (E=0-19% control)"}]}
{"smiles": "FC(F)(F)c1c(Cl)cnc(N2CCCC2c2ccccn2)c1Cl", "note": "(stereo not drawn)", "values": [{"measurement": "Green Peach Aphid percent control (Abbott corrected % control)", "setting": "[1]", "result": "E (E=0-19% control)"}, {"measurement": "Beet Armyworm percent control", "setting": "[2]", "result": "B (B=60-79% control)"}]}
{"smiles": "CCC1CN(c2cc(C(F)(F)F)c(C#N)c(Cl)n2)C(c2ccccn2)O1", "note": "(stereo not drawn) [Compound 19, 2-Chloro-6-[5-ethyl-2-(2-pyridyl)oxazolidin-3-yl]-4-(trifluoromethyl)pyridine-3-carbonitrile]", "values": [{"measurement": "Green Peach Aphid percent control (Abbott corrected % control)", "setting": "[1]", "result": "C (C=40-59% control)"}, {"measurement": "Beet Armyworm percent control", "setting": "[2]", "result": "C (C=40-59% control)"}]}
{"smiles": "FC(F)(F)c1cc(N2CCCC2c2ccccn2)nc(Cl)c1Cl", "note": "(stereo not drawn) [Compound 1, 6-[2-(2-Pyridyl)-1-pyrrolidinyl]-4-trifluoromethyl-2,3-dichloropyridine]", "values": [{"measurement": "Green Peach Aphid percent control (Abbott corrected % control)", "setting": "[1]", "result": "A (A=80-100% control)"}, {"measurement": "Beet Armyworm percent control", "setting": "[2]", "result": "B (B=60-79% control)"}]}
{"smiles": "N#Cc1c(C(F)(F)F)cc(N2C(c3ccccc3)COC2c2ccccn2)nc1Cl", "note": "(stereo not drawn) [Compound 18, 2-chloro-6-[4-phenyl-2-(2-pyridyl)oxazolidin-3-yl]-4-(trifluoromethyl)pyridine-3-carbonitrile]", "values": [{"measurement": "Green Peach Aphid percent control (Abbott corrected % control)", "setting": "[1]", "result": "E (E=0-19% control)"}, {"measurement": "Beet Armyworm percent control", "setting": "[2]", "result": "E (E=0-19% control)"}]}
{"smiles": "CC(C)C1COC(c2ccccn2)N1c1cc(C(F)(F)F)c(C#N)c(Cl)n1", "note": "(stereo not drawn) [Compound 12, 2-chloro-6-[4-isopropyl-2-(2-pyridyl)oxazolidin-3-yl]-4-(trifluoromethyl)pyridine-3-carbonitrile]", "values": [{"measurement": "Green Peach Aphid percent control (Abbott corrected % control)", "setting": "[1]", "result": "D (D=20-39% control)"}, {"measurement": "Beet Armyworm percent control", "setting": "[2]", "result": "E (E=0-19% control)"}]}
{"smiles": "FC(F)(F)c1cc(N2CCCC2c2ccccn2)nc(Cl)c1Br", "note": "(stereo not drawn)", "values": [{"measurement": "Green Peach Aphid percent control (Abbott corrected % control)", "setting": "[1]", "result": "D (D=20-39% control)"}, {"measurement": "Beet Armyworm percent control", "setting": "[2]", "result": "E (E=0-19% control)"}]}
